Test results as given in patent publication US20020032236A1, “Method for the treatment of dermatological diseases by using nimesulide” (priority 2000, published 2002).

Test system: pustular psoriasis, gangrenous pyoderma, capillitium erosive dermatitis and Dick & Syme syndrome
Conditions: 200 mg/day for 3 weeks, followed by 100 mg/day for three weeks
Description: Double blind clinical studies were carried out on patients suffering from pustular psoriasis, gangrenous pyoderma, capillitium erosive dermatitis and Dick & Syme syndrome. Patients were treated with Nimesulide, at a dosage of 200 mg/day for 3 weeks, followed by 100 mg/day for three weeks.
At the end of the treatment, the following parameters were evaluated: number of the skin lesions extent of the skin lesions relief from pain at the nodule sites

[1] = patients, at the end of the treatment

Question: `CS(=O)(=O)Nc1ccc([N+](=O)[O-])cc1Oc1ccccc1` [Nimesulide] was tested. Which “remission of the "disease"” value (in some cases) did it give?
Answer: complete remission

Question: And the side effects (patients)?
Answer: no side effects were observed

Question: What about the “effectiveness in the treatment of the "diseases"” value [1] of the same compound?
Answer: statistically effective

Question: And the “extent of the skin lesions” value [1]?
Answer: regression of the skin lesions

Question: And the “number of the skin lesions” value [1]?
Answer: regression of the skin lesions

Question: What about the “relief from pain at the nodule sites” value [1] of the same compound?
Answer: almost complete disappearance of pain
